Assays:
[1] = tested on: Receptor-type tyrosine-protein kinase FLT3 (Homo sapiens), P36888 [UNDEFINED MUTATION]; experiment: FLT3 ITD ProQinase selectivity panel; settings: Compound concentration 1.0 uM
[2] = molecular target: Leukocyte tyrosine kinase receptor (Homo sapiens) (UniProt P29376); experiment: LTK ProQinase selectivity panel; settings: Compound concentration 1.0 uM
[3] = tested on: Epidermal growth factor receptor (Homo sapiens), P00533 [L858R,T790M]; experiment: EGF-R T790M/L858R ProQinase selectivity panel; settings: Compound concentration 1.0 uM
[4] = molecular target: Phosphorylase b kinase gamma catalytic chain, liver/testis isoform (Homo sapiens) (UniProt P15735); experiment: PHKG2 ProQinase selectivity panel; settings: Compound concentration 1.0 uM
[5] = tested on: Epidermal growth factor receptor (Homo sapiens), P00533 [UNDEFINED MUTATION]; experiment: EGF-R d747-749/A750P ProQinase selectivity panel; settings: Compound concentration 1.0 uM
[6] = tested on: Tyrosine-protein kinase ABL1 (Homo sapiens), P00519 [Q252H]; experiment: ABL1 Q252H ProQinase selectivity panel; settings: Compound concentration 1.0 uM
[7] = molecular target: Mitogen-activated protein kinase 14 (Homo sapiens) (UniProt Q16539); experiment: p38-alpha ProQinase selectivity panel; settings: Compound concentration 1.0 uM
[8] = tested on: Hepatocyte growth factor receptor (Homo sapiens), P08581 [M1250T]; experiment: MET M1250T ProQinase selectivity panel; settings: Compound concentration 1.0 uM
[9] = molecular target: Mitogen-activated protein kinase kinase kinase 2 (Homo sapiens) (UniProt Q9Y2U5); experiment: MEKK2 ProQinase selectivity panel; settings: Compound concentration 1.0 uM
[10] = tested on: Epidermal growth factor receptor (Homo sapiens), P00533 [L861Q]; experiment: EGF-R L861Q ProQinase selectivity panel; settings: Compound concentration 1.0 uM
[11] = molecular target: Dual specificity protein kinase CLK1 (Homo sapiens) (UniProt P49759); experiment: CLK1 ProQinase selectivity panel; settings: Compound concentration 1.0 uM
[12] = molecular target: Serine/threonine-protein kinase MARK2 (Homo sapiens) (UniProt Q7KZI7); experiment: MARK2 ProQinase selectivity panel; settings: Compound concentration 1.0 uM
[13] = molecular target: LIM domain kinase 1 (Homo sapiens) (UniProt P53667); experiment: LIMK1 ProQinase selectivity panel; settings: Compound concentration 1.0 uM
[14] = molecular target: Non-receptor tyrosine-protein kinase TYK2 (Homo sapiens) (UniProt P29597); experiment: TYK2 ProQinase selectivity panel; settings: Compound concentration 1.0 uM
[15] = molecular target: Glycogen synthase kinase-3 alpha (Homo sapiens) (UniProt P49840); experiment: GSK3-alpha ProQinase selectivity panel; settings: Compound concentration 1.0 uM
[16] = molecular target: High affinity nerve growth factor receptor (Homo sapiens) (UniProt P04629); experiment: TRK-A ProQinase selectivity panel; settings: Compound concentration 1.0 uM
[17] = molecular target: Serine/threonine-protein kinase Nek2 (Homo sapiens) (UniProt P51955); experiment: NEK2 ProQinase selectivity panel; settings: Compound concentration 1.0 uM
[18] = molecular target: Tyrosine-protein kinase CSK (Homo sapiens) (UniProt P41240); experiment: CSK ProQinase selectivity panel; settings: Compound concentration 1.0 uM
[19] = molecular target: Serine/threonine-protein kinase TAO2 (Homo sapiens) (UniProt Q9UL54); experiment: TAOK2 ProQinase selectivity panel; settings: Compound concentration 1.0 uM
[20] = molecular target: Serine/threonine-protein kinase 26 (Homo sapiens) (UniProt Q9P289); experiment: MST4 ProQinase selectivity panel; settings: Compound concentration 1.0 uM
[21] = molecular target: Dual serine/threonine and tyrosine protein kinase (Homo sapiens) (UniProt Q6XUX3); experiment: RIPK5 ProQinase selectivity panel; settings: Compound concentration 1.0 uM
[22] = tested on: Epidermal growth factor receptor (Homo sapiens), P00533 [UNDEFINED MUTATION]; experiment: EGF-R d747-752/P753S ProQinase selectivity panel; settings: Compound concentration 1.0 uM
[23] = molecular target: D(3) dopamine receptor (Homo sapiens) (UniProt P35462); settings: Compound concentration 10.0 uM
[24] = molecular target: NT-3 growth factor receptor (Homo sapiens) (UniProt Q16288); experiment: TRK-C ProQinase selectivity panel; settings: Compound concentration 1.0 uM
[25] = tested on: Epidermal growth factor receptor (Homo sapiens), P00533 [T790M]; experiment: EGF-R T790M ProQinase selectivity panel; settings: Compound concentration 1.0 uM
[26] = molecular target: LIM domain kinase 2 (Homo sapiens) (UniProt P53671); experiment: LIMK2 ProQinase selectivity panel; settings: Compound concentration 1.0 uM
[27] = tested on: Fibroblast growth factor receptor 1 (Homo sapiens), P11362 [V561M]; experiment: FGF-R1 V561M ProQinase selectivity panel; settings: Compound concentration 1.0 uM
[28] = molecular target: Macrophage-stimulating protein receptor (Homo sapiens) (UniProt Q04912); experiment: RON ProQinase selectivity panel; settings: Compound concentration 1.0 uM
[29] = molecular target: Alpha-1D adrenergic receptor (Homo sapiens) (UniProt P25100); settings: Compound concentration 10.0 uM
[30] = molecular target: GABA-A receptor; anion channel (Rattus norvegicus) (UniProt O09028+P15431+P18506+P18508+P19969+P20236+P23574+P23576+P28471+P28473+P30191+P62813+P63079+P63138+Q91ZM7+Q9ES14); settings: Compound concentration 10.0 uM
[31] = molecular target: Mitogen-activated protein kinase 12 (Homo sapiens) (UniProt P53778); experiment: p38-gamma ProQinase selectivity panel; settings: Compound concentration 1.0 uM
[32] = molecular target: Serine/threonine-protein kinase 25 (Homo sapiens) (UniProt O00506); experiment: STK25 ProQinase selectivity panel; settings: Compound concentration 1.0 uM
[33] = molecular target: Casein kinase II subunit alpha (Homo sapiens) (UniProt P68400); experiment: CK2-alpha1 ProQinase selectivity panel; settings: Compound concentration 1.0 uM
[34] = molecular target: Serine/threonine-protein kinase haspin (Homo sapiens) (UniProt Q8TF76); experiment: GSG2 ProQinase selectivity panel; settings: Compound concentration 1.0 uM
[35] = molecular target: Protein kinase C theta type (Homo sapiens) (UniProt Q04759); experiment: PKC-theta ProQinase selectivity panel; settings: Compound concentration 1.0 uM
[36] = molecular target: Proto-oncogene tyrosine-protein kinase Src (Homo sapiens) (UniProt P12931); experiment: SRC ProQinase selectivity panel; settings: Compound concentration 1.0 uM
[37] = molecular target: 5-hydroxytryptamine receptor 2B (Homo sapiens, UniProt P41595); settings: Compound concentration 10.0 uM
[38] = molecular target: Mitogen-activated protein kinase kinase kinase 7 (Homo sapiens) (UniProt O43318); experiment: MAP3K7/MAP3K7IP1 ProQinase selectivity panel; settings: Compound concentration 1.0 uM
[39] = molecular target: Serine/threonine-protein kinase Nek11 (Homo sapiens) (UniProt Q8NG66); experiment: NEK11 ProQinase selectivity panel; settings: Compound concentration 1.0 uM
[40] = molecular target: SRSF protein kinase 2 (Homo sapiens) (UniProt P78362); experiment: SRPK2 ProQinase selectivity panel; settings: Compound concentration 1.0 uM
[41] = molecular target: Mitogen-activated protein kinase 3 (Homo sapiens) (UniProt P27361); experiment: ERK1 ProQinase selectivity panel; settings: Compound concentration 1.0 uM
[42] = molecular target: Protein kinase C gamma type (Homo sapiens) (UniProt P05129); experiment: PKC-gamma ProQinase selectivity panel; settings: Compound concentration 1.0 uM
[43] = molecular target: Mitogen-activated protein kinase 9 (Homo sapiens) (UniProt P45984); experiment: JNK2 ProQinase selectivity panel; settings: Compound concentration 1.0 uM
[44] = molecular target: CDK8/Cyclin C (Homo sapiens) (UniProt P49336+P24863); experiment: CDK8/CycC ProQinase selectivity panel; type: protein-complex assay; settings: Compound concentration 1.0 uM
[45] = molecular target: TGF-beta receptor type-2 (Homo sapiens) (UniProt P37173); experiment: TGFB-R2 ProQinase selectivity panel; settings: Compound concentration 1.0 uM
[46] = molecular target: Tyrosine-protein kinase ABL2 (Homo sapiens) (UniProt P42684); experiment: ABL2 ProQinase selectivity panel; settings: Compound concentration 1.0 uM
[47] = molecular target: NUAK family SNF1-like kinase 1 (Homo sapiens) (UniProt O60285); experiment: ARK5 ProQinase selectivity panel; settings: Compound concentration 1.0 uM

Epidermal growth factor receptor (Homo sapiens), P00533 [UNDEFINED MUTATION], sequence (P00533 whole entry, looked up, stated change not applied): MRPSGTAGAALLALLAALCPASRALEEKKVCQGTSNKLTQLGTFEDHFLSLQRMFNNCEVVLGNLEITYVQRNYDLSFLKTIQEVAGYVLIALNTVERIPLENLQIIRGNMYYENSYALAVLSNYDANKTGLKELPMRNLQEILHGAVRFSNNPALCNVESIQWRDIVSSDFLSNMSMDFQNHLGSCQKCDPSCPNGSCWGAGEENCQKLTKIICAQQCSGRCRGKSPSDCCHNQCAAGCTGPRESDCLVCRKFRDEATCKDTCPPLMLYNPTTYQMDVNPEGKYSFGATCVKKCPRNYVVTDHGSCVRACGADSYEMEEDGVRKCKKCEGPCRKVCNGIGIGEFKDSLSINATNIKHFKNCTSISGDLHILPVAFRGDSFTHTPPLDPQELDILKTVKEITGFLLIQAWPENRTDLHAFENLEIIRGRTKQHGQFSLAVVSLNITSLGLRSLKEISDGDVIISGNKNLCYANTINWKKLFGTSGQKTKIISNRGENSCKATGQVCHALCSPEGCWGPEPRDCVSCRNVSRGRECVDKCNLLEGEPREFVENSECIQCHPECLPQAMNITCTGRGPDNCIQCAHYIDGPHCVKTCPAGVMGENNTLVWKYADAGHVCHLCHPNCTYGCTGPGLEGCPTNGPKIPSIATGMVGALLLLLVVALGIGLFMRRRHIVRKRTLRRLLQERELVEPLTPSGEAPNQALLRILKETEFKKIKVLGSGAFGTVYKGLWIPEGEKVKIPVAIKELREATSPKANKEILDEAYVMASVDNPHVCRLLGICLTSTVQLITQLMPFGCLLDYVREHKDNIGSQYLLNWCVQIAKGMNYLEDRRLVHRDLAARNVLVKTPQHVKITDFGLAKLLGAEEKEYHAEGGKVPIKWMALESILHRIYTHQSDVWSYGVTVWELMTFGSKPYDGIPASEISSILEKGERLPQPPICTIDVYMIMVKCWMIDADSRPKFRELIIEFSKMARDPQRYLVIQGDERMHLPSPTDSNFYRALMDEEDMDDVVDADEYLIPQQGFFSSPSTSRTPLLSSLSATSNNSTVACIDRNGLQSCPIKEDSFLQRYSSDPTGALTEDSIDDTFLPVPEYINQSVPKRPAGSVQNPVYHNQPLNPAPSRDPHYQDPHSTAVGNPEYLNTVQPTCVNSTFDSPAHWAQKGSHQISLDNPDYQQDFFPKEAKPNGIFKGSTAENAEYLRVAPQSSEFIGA
Mitogen-activated protein kinase kinase kinase 7 (Homo sapiens), sequence (O43318 whole entry): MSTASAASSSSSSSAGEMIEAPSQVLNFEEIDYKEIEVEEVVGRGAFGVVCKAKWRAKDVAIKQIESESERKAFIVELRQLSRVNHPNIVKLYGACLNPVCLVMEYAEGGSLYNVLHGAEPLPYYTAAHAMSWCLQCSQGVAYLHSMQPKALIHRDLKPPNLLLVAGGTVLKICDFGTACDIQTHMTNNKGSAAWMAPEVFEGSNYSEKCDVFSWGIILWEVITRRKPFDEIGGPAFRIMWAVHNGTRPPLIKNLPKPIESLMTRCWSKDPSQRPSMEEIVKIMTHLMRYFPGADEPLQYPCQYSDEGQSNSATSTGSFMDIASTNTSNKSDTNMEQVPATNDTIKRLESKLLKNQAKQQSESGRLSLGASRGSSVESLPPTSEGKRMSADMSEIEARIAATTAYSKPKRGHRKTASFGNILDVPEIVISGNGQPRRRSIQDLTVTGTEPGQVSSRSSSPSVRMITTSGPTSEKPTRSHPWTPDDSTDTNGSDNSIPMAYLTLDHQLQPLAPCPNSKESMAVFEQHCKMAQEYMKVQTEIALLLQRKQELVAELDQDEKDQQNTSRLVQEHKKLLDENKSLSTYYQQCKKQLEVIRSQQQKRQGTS
Tyrosine-protein kinase CSK (Homo sapiens), sequence (P41240 2-450 limits assumed): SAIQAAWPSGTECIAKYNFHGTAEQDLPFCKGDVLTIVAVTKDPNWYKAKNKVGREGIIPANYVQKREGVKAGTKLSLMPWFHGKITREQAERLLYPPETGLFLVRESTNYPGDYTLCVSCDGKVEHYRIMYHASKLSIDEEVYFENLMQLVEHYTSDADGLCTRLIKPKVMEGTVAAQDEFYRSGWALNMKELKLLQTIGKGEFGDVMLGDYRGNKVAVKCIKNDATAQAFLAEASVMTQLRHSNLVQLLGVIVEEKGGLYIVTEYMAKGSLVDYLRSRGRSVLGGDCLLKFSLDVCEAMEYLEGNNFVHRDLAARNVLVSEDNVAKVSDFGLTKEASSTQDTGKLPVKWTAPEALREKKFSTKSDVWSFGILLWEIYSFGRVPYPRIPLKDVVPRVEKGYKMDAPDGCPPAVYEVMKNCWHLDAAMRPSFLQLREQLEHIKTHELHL
Tyrosine-protein kinase ABL2 (Homo sapiens), sequence (P42684 whole entry): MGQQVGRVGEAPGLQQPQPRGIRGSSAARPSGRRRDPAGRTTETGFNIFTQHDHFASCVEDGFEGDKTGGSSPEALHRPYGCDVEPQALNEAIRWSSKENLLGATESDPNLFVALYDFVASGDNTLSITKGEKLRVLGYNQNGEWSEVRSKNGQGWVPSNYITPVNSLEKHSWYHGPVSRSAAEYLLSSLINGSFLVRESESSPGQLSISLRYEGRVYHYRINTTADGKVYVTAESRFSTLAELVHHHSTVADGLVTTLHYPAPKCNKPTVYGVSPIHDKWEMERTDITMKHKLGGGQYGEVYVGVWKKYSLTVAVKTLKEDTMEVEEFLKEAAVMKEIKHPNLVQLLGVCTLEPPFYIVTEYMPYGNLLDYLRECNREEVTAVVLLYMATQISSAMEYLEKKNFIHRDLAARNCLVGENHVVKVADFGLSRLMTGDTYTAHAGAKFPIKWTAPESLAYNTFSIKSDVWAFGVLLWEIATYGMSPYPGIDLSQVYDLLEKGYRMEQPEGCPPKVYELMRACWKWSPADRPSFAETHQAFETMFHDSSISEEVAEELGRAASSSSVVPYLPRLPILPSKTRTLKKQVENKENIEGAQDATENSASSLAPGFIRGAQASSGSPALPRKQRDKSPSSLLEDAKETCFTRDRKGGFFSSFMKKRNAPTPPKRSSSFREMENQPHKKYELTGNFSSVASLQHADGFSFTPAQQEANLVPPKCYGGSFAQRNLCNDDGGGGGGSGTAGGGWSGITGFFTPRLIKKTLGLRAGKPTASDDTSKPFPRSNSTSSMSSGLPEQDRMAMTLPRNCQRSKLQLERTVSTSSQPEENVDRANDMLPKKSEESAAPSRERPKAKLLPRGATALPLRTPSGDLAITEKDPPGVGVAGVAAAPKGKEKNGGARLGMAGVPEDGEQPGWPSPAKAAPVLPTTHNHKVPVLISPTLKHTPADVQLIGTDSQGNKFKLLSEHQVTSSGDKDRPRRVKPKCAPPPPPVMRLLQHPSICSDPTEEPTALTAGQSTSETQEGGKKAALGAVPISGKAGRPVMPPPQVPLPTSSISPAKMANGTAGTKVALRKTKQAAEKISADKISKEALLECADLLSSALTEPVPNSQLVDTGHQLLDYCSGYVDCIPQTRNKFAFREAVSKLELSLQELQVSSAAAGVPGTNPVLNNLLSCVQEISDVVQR
Epidermal growth factor receptor (Homo sapiens), P00533 [T790M], sequence (P00533 whole entry T790M, the tested form may be a part): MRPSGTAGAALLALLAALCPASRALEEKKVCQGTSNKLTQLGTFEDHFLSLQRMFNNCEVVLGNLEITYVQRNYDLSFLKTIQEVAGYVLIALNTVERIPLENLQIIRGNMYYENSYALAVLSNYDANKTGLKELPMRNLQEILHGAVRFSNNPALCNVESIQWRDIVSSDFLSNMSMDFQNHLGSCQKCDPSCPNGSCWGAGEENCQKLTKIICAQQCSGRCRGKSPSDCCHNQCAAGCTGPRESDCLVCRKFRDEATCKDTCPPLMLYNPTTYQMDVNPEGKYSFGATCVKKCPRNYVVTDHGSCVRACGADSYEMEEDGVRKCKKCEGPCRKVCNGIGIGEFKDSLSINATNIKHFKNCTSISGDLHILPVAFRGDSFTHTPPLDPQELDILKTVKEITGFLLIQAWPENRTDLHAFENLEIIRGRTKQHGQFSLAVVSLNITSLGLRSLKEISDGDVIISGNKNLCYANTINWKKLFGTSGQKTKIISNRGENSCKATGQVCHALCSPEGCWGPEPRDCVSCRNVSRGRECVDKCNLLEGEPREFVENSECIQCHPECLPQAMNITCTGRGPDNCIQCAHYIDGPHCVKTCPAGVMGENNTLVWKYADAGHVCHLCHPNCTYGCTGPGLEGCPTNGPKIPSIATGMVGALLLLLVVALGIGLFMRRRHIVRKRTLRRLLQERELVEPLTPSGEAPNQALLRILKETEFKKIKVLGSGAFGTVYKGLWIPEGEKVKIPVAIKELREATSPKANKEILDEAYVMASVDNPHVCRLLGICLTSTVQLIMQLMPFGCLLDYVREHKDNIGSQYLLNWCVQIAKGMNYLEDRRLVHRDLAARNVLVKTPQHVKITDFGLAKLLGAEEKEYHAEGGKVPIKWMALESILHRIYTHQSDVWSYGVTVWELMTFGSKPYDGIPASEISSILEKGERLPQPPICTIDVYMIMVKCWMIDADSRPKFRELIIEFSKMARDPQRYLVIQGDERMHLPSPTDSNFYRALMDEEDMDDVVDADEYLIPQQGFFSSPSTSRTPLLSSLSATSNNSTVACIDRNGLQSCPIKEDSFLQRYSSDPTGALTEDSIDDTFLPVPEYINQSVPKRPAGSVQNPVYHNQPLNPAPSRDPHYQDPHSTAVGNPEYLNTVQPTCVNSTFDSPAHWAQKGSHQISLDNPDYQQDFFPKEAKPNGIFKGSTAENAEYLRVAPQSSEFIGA
Mitogen-activated protein kinase 14 (Homo sapiens), sequence (Q16539 whole entry): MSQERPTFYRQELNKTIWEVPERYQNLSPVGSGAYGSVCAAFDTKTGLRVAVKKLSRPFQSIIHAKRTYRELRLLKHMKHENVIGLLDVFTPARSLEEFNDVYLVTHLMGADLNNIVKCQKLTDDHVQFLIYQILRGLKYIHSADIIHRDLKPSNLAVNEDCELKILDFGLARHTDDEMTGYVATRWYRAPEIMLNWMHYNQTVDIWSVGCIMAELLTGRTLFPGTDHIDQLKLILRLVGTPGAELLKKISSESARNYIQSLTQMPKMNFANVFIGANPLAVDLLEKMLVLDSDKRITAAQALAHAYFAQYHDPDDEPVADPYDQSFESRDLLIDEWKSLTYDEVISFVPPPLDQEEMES

## O=C1c2ccc(Nc3ccc(F)cc3F)cc2CCc2ccc(OC[C@H](O)CO)cc21 [Skepinone-L]
[1]
  % Residual activity with Skepinone-L: 101%
[2]
  % Residual activity with Skepinone-L: 97%
[3]
  % Residual activity with Skepinone-L: 93%
[4]
  % Residual activity with Skepinone-L: 73%
[5]
  % Residual activity with Skepinone-L: 96%
[6]
  % Residual activity with Skepinone-L: 95%
[7]
  % Residual activity with Skepinone-L: 0%
[8]
  % Residual activity with Skepinone-L: 100%
[9]
  % Residual activity with Skepinone-L: 89%
[10]
  % Residual activity with Skepinone-L: 94%
[11]
  % Residual activity with Skepinone-L: 106%
[12]
  % Residual activity with Skepinone-L: 105%
[13]
  % Residual activity with Skepinone-L: 109%
[14]
  % Residual activity with Skepinone-L: 96%
[15]
  % Residual activity with Skepinone-L: 93%
[16]
  % Residual activity with Skepinone-L: 111%
[17]
  % Residual activity with Skepinone-L: 85%
[18]
  % Residual activity with Skepinone-L: 111%
[19]
  % Residual activity with Skepinone-L: 102%
[20]
  % Residual activity with Skepinone-L: 106%
[21]
  % Residual activity with Skepinone-L: 95%
[22]
  % Residual activity with Skepinone-L: 93%
[23]
  inhibition: -7.71%
[24]
  % Residual activity with Skepinone-L: 120%
[25]
  % Residual activity with Skepinone-L: 119%
[26]
  % Residual activity with Skepinone-L: 100%
[27]
  % Residual activity with Skepinone-L: 89%
[28]
  % Residual activity with Skepinone-L: 56%
[29]
  inhibition: 19.5%
[30]
  inhibition: 12.8%
[31]
  % Residual activity with Skepinone-L: 102%
[32]
  % Residual activity with Skepinone-L: 100%
[33]
  % Residual activity with Skepinone-L: 95%
[34]
  % Residual activity with Skepinone-L: 82%
[35]
  % Residual activity with Skepinone-L: 99%
[36]
  % Residual activity with Skepinone-L: 119%
[37]
  inhibition: 83.1%
[38]
  % Residual activity with Skepinone-L: 80%
[39]
  % Residual activity with Skepinone-L: 113%
[40]
  % Residual activity with Skepinone-L: 101%
[41]
  % Residual activity with Skepinone-L: 99%
[42]
  % Residual activity with Skepinone-L: 99%
[43]
  % Residual activity with Skepinone-L: 58%
[44]
  % Residual activity with Skepinone-L: 105%
[45]
  % Residual activity with Skepinone-L: 77%
[46]
  % Residual activity with Skepinone-L: 99%
[47]
  % Residual activity with Skepinone-L: 115%
